Laboratory results reported in BindingDB's records for doi:10.1111/cbdd.12575 (Universidade De Lisboa, 2015).
pKi: −log10 of the molar value.

target: T1, Nitric oxide synthase, inducible (Mus musculus, UniProt P29477); assay: iNOS Activity Assay
T1 sequence (P29477 whole entry): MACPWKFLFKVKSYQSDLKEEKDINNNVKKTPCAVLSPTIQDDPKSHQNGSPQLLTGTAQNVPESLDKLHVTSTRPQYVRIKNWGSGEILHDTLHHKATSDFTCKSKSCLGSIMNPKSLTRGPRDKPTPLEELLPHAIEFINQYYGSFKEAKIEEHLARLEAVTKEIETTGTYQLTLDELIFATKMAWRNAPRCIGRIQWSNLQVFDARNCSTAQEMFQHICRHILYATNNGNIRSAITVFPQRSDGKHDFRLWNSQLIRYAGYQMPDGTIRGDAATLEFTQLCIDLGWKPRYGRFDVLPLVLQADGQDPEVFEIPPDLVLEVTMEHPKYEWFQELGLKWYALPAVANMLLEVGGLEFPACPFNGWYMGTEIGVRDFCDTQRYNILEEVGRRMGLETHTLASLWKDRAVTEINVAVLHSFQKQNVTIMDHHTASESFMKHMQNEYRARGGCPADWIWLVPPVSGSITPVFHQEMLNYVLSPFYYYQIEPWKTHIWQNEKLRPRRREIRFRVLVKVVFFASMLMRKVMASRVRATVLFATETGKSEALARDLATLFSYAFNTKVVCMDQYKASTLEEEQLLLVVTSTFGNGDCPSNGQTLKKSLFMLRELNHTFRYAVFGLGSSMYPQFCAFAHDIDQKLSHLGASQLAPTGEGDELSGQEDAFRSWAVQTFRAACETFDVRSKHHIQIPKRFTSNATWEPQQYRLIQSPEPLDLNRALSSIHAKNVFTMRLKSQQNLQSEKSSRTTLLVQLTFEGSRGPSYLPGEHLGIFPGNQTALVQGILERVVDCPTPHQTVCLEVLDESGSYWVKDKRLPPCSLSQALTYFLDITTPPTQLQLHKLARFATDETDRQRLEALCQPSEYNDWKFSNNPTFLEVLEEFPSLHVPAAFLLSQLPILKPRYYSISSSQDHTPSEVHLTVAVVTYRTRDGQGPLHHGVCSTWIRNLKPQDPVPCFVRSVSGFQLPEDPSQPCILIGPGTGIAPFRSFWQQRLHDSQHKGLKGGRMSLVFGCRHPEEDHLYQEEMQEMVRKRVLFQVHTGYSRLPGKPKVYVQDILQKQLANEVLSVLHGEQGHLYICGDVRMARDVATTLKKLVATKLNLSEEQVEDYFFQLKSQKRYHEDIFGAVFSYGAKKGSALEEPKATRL
Procedure: The iNOS activity assay was based on the method of hemoglobin assay previously described with slight modifications. The activity of the enzyme was determined spectrophotometrically by monitoring the NO-mediated conversion of oxyhemoglobin to methemoglobin at 401 and 421 nm.

SMILES	pKi
N=C(NCCCC12C[NH][Re]([CH]=O)([CH]=O)([CH]=O)([NH]1)[O]C2=O)N[N+](=O)[O-] (stereo not given) [1,1,1-triformyl-4-(3-{[iminiumyl(nitroamino)methyl]amino}propyl)-3-oxo-2-oxa-6,7-diaza-1-rhenabicyclo[2.2.1]heptane-6,7-diium (Re4)]	3.62
N=C(NCCCC(N)(CN)C(=O)O)N[N+](=O)[O-] (stereo not given) [2-Amino-2-(aminomethyl)-5-(3-nitroguanidino)pentanoic acid (L4)]	4.53
NCC(N)(CCCC(=O)NC(CCCNC(N)=N[N+](=O)[O-])C(=O)O)C(=O)O (stereo not given) [2-Amino-2-(aminomethyl)-6-(1-carboxy-4-(2-nitroguanidino)butylamino)-6-oxohexanoic acid (L5)]	5.21
NCC(N)(CCCCCCC(=O)NC(CCCNC(N)=N[N+](=O)[O-])C(=O)O)C(=O)O (stereo not given) [2-Amino-2-(aminomethyl)-9-(1-carboxy-4-(2-nitroguanidino)butylamino)-9-oxononanoic acid (L6)]	3.12
N=C(NCCCC(NC(=O)CCCC12C[NH][Re]([CH]=O)([CH]=O)([CH]=O)([NH]1)[O]C2=O)C(=O)O)N[N+](=O)[O-] (stereo not given) [4-{3-[(1-carboxylato-4-{[iminiumyl(nitroamino)methyl]amino}butyl)carbamoyl]propyl}-1,1,1-triformyl-3-oxo-2-oxa-6,7-diaza-1-rhenabicyclo[2.2.1]heptane-6,7-diium (Re5)]	4.24
